Measurements taken from PubChem BioAssay AID1996.
Values after ≈ are worked out from the molar mass of the structure shown.

details: buffer; pH 7.4; 200.0 µM

SMILES | solubility kinetic [µg/mL]
CN(CC(=O)Nc1ccc(Br)cc1)Cc1ccccc1 | 25.4 (≈ 76.2 µM)
O=C(CN1CCc2ccccc2C1)NCC(=O)Nc1ccc(F)cc1 | 17.1 (≈ 50.1 µM)
COc1cccc2cc(/C(=N/O)c3ccccc3)oc12 | < 0.6
CCC1Sc2ccccc2N(CC(=O)NC2CCCCC2)C1=O (stereo not given) | > 49.9
CCOC(=O)C1(Cc2cccc(Cl)c2)CCCN(CCO)C1 (stereo not given) | 47.9 (≈ 147 µM)
COC(=O)C1=C(C)Nc2nc3ccccc3n2C1c1ccccc1F (stereo not given) | 0.3 (≈ 0.889 µM)
COc1ccccc1CNC(=O)CCc1cn(C)c2ccccc12 | 39.2 (≈ 122 µM)
Cc1ccc(C(=O)Nc2cccc(C(=O)NC3CCCCC3)c2)cc1 | < 0.4
CC1(CCc2ccccc2)NC(=O)N(CC(=O)O)C1=O (stereo not given) | 16.6 (≈ 60.1 µM)
CC(C)c1nc2cc(Cl)ccc2n(Cc2ccccc2)c1=O | 0.4 (≈ 1.28 µM)
COc1cc(C(=O)OCC(=O)N2CCCC2=O)cc(OC)c1C | > 48.2
O=C(Nc1cccc(C(F)(F)F)c1)OC1CN2CCC1CC2 (stereo not given) | > 47.1
O=C(c1cc(-c2cccc(Cl)c2)on1)N1CCCCCC1 | 14 (≈ 45.9 µM)
O=C(O/N=C1/CCCc2occc21)c1ccc(Cl)cc1Cl | < 0.7
O=Nc1c(O)n(Cc2ccccc2)c2ccccc12 | > 37.8
COc1ccc(NC(=S)N2CCN(Cc3ccc(C)cc3)CC2)cc1 | 0.4 (≈ 1.13 µM)
O=C(Nc1ccccc1)C1CC(=O)N(Cc2ccccc2)C1 (stereo not given) | > 44.2
O=c1onc(-c2cccnc2)n1-c1ccccc1F | 33 (≈ 128 µM)
COc1ccc(C(=O)c2sc(Nc3ccccc3)nc2N)cc1OC | 0.6 (≈ 1.69 µM)
O=C(COC(=O)/C=C/c1ccc(F)cc1)NCc1ccc2c(c1)OCO2 | 4.9 (≈ 13.7 µM)
CCOC(=O)c1sc(Nc2nc(C)cc(C)n2)nc1C | 1.2 (≈ 4.1 µM)
C=CCN1CCN(c2ccncc2S(=O)(=O)N2CCCCC2)CC1 | > 52.6
CN(C)c1nc2c(N)ncnc2n1[C@H]1O[C@@H](CO)[C@H](O)[C@@H]1O | > 46.5
O=c1c2c3c(sc2nc(NCCO)n1-c1ccccc1)CCCC3 | 6.8 (≈ 19.9 µM)

SMILES | solubility kinetic [µg/mL]
COc1ccc(Cl)cc1NC(=O)Cn1c(C)csc1=O | 18.3 (≈ 58.5 µM)
COC(=O)c1sc(N2CCCCC2)c(C#N)c1N | 2.2 (≈ 8.29 µM)
CC(C)C1Oc2ccccc2N(CC(=O)N2CCOCC2)C1=O (stereo not given) | > 47.8
CCn1cc(S(=O)(=O)NC2CCCCC2)cn1 | > 38.6
CCCCCC(=O)NNC1CC(=O)N(c2ccccc2)C1=O (stereo not given) | > 45.5
C=CCC(C(=O)NC(C)c1ccccc1)C(=O)NC(C)c1ccccc1 (stereo not given) | 16.5 (≈ 47.1 µM)
CCC(=O)c1cn(CC(=O)Nc2ccc(OC)cc2)c2ccccc12 | < 0.4
CC(OC(=O)c1ccco1)C(=O)NC1CCCC1 (stereo not given) | > 37.7
COc1ccc(NC(=O)c2cc(-c3cccc(OC)c3)on2)cc1 | < 0.3
O=C(COC(=O)/C=C/c1ccc(OC(F)F)cc1)NC1CCCCCC1 | 4.6 (≈ 12.5 µM)
CCCCN1C(C)=CC(=C2C(=O)c3ccccc3C2=O)C=C1C | < 0.7
COc1ccc(CN2C(=O)C(C)=C(C)C2OC)cc1 (stereo not given) | > 39.2
O=C(Oc1ccc(Cl)c2cccnc12)c1cccnc1 | 30 (≈ 105 µM)
COc1ccc(-n2c(C)cc(/C=C3\SC(=O)NC3=O)c2C)cc1 | 3.9 (≈ 11.9 µM)
O=C(CNC(=O)C1COc2ccccc2O1)Nc1ccc(F)c(F)c1 (stereo not given) | 18.3 (≈ 52.5 µM)
CCC(=O)OCC(=O)Nc1cc(S(=O)(=O)N(C)C)ccc1Cl | 46 (≈ 132 µM)
CC(=O)c1ccc(NC(=O)COC(=O)CCC2CCCC2)cc1 | 17 (≈ 53.6 µM)
CCCCNC(=O)c1ccc(CS(=O)(=O)Cc2ccccc2F)o1 | > 53
CC(C)c1ccc(CNc2ncccn2)cc1.O=C(O)C(=O)O | 31.3
Cn1c(N)c(C(=O)COC(=O)/C=C/c2ccccc2F)c(=O)n(C)c1=O | 5.5 (≈ 15.2 µM)
CC1Oc2ccccc2N(Cc2cccc(F)c2)C1=O (stereo not given) | 18.6 (≈ 68.6 µM)
CCCC(=O)Nc1ccc2c(c1)nc1n2CCN(CCOC)C1 | > 47.5
CC(=O)N1CCN(CC(=O)Nc2ccccc2C(=O)Nc2ccccc2)CC1 | > 57.1
COc1ccc(C(C)C)cc1S(=O)(=O)NCC1CCCO1 (stereo not given) | 44.3 (≈ 141 µM)

SMILES | solubility kinetic [µg/mL]
C=CCNC1=C(Cl)C(=O)N(Cc2ccccc2)C1=O | 5.8 (≈ 21 µM)
CS(=O)(=O)N(CC(=O)N1CCOCC1)c1ccccc1 | > 44.8
Cc1ccc(N=C2c3ccccc3C(=O)C2[N+](=O)[O-])cc1C (stereo not given) | 8.8 (≈ 29.9 µM)
COc1ccc(NC(=O)CCOc2ccc(C)cc2)c(OC)c1 | 29.6 (≈ 93.9 µM)
Cc1cccc(C(=O)O/N=C/c2ccc(Br)cc2)c1 | < 0.7
CCN1CCN(C(=O)/C=C/c2ccc(C)cc2)CC1 | > 38.8
O=C(COC(=O)/C=C/c1ccc(Cl)cc1)NC1CC1 | 7.1 (≈ 25.4 µM)
Cn1c(=O)c2[nH]c(SCC(=O)c3ccc(F)cc3)nc2n(C)c1=O | 7.5 (≈ 21.5 µM)
Cc1c(Cl)cccc1NC(=O)CCN1CCOCC1 | > 42.4
O=C(O)CCc1nc2ccccc2c(=O)[nH]1 | > 32.7
Cc1cccc(NC(=O)Nc2cccnc2)c1C | > 36.2
CC(C)CCNC(=O)C(=O)Nc1cc2c3c(c1)CC(=O)N3CCC2 | 28.5 (≈ 86.5 µM)
COCCSc1ccccc1C(=O)NCCc1ccccc1 | > 47.3
Cc1cc(C)cc(OCC(=O)OCC(=O)NC2CCCC2)c1 | 38.5 (≈ 126 µM)
COCCSc1ccccc1C(=O)Nc1ccc(Br)cc1 | 43.1 (≈ 118 µM)
N#CC1=C(N)Oc2c(ccc3cccnc23)C1c1ccncc1 (stereo not given) | 40.8 (≈ 136 µM)
CN1C(=O)C(=O)N(c2cccc(C(F)(F)F)c2)C1=O | 39.9 (≈ 147 µM)
COC(=O)c1ccccc1NC(=S)N1CCN(c2ccccc2)CC1 | 13.4 (≈ 37.7 µM)
Cc1cc(C)c(C(=O)CSc2nnc(C)c(=O)[nH]2)cc1C | > 45.5
O=C(O)Cn1cc(C(=O)C(F)(F)F)c2ccccc21 | > 40.7
CCCCc1c(C)[nH]c2nc3ccccc3n2c1=O | < 0.2
COc1ccccc1C/C(N)=N/OC(=O)COc1cccc(C)c1C | 8.2 (≈ 23.9 µM)
Nc1nc(-c2nonc2N)no1 | > 25.2
COc1ccc(NC(=O)C2CC(=O)N(c3ccccc3C)C2)c(OC)c1 (stereo not given) | > 53.2

SMILES | solubility kinetic [µg/mL]
COc1ccc(C(=O)NCCc2nc3cc([N+](=O)[O-])ccc3n2C)cc1 | 2.5 (≈ 7.05 µM)
CC(C)OCCCNc1ncnc2c1nc1n2CCCC1 | > 43.4
COc1ccc(NC(C)c2ccccc2)cc1 (stereo not given) | 16.9 (≈ 74.3 µM)
CC(=O)O.Fc1ccc(NC(=S)Nc2cccnc2)cc1 | > 46.1
CN1CCN(C(=O)c2cc3cc(Cl)ccc3[nH]2)CC1.Cl | > 47.1
O=C(O)/C=C/C(=O)Nc1ccc(N2CCOCC2)nc1N1CCOCC1 | > 54.4
Cn1cccc1C(=O)/C(C#N)=C/c1ccc(F)cc1 | 36.3 (≈ 143 µM)
COc1cc(OC)cc(C(=O)O/N=C(\N)c2ccccn2)c1 | 40.6 (≈ 135 µM)
NC(=O)c1ccccc1OCc1nc2ccccc2s1 | 19.5 (≈ 68.6 µM)
Cc1cccc(NC(=O)CSc2nncn2-c2ccccn2)c1 | > 48.8
CC(NC(=O)c1cc(Br)ccc1Cl)c1ccccc1 (stereo not given) | 3.8 (≈ 11.2 µM)
C=CCC1(C#N)C(=S)NC(C)=C(C(=O)OCC)C1c1ccccc1 (stereo not given) | > 51.1
c1ccc(-c2nc3ccccn3c2-c2ccccc2)cc1 | 10.1 (≈ 37.4 µM)
Cl.O=S(=O)(N1CCCCCC1)N1CCNCC1 | > 42.6
COc1cc(C(=O)N2CCCc3ccccc32)c([N+](=O)[O-])cc1OC | > 51.4
C=CCNC(=S)NNC(=O)C(CC(C)C)CC(C)O (stereo not given) | > 43.1
COc1cc(N)c(Cl)cc1C(=O)OCC(=O)NC(=O)NCc1ccco1 | 5.3 (≈ 13.9 µM)
O=C(NCC1CC1)c1cc([N+](=O)[O-])cc([N+](=O)[O-])c1 | > 39.8
O=C(Cc1c(Cl)cccc1Cl)NC1=NCCS1 | 19.2 (≈ 66.4 µM)
O=C(O)CCCC(=O)N1CCOCCOCCOCCOCC1 | 48.2 (≈ 145 µM)
CN(C)S(=O)(=O)c1cccc(NC(=O)C2CCN(S(=O)(=O)c3cccs3)CC2)c1 | 23.4 (≈ 51.1 µM)
COCCNCC(=O)N1c2ccccc2Sc2ccccc21 | 38.1 (≈ 121 µM)
CC(=O)c1ccc(OCCOc2ccc(Cl)c3cccnc23)cc1 | < 0.7
COC(=O)c1cccnc1NC(=S)NC(C)C | 7.1 (≈ 28 µM)

SMILES | solubility kinetic [µg/mL]
O=C(OCC(=O)N1CCc2ccccc21)c1nc(Cl)ccc1Cl | 23.3 (≈ 66.3 µM)
COc1cccc(C(=O)Nc2ccc3c(c2)n(C)c(=O)n3C)c1 | > 46.7
COc1ccccc1N1CCN(C(=O)C2CC2)CC1 | > 39.1
O=C(O)CC/C(=N/NC(=O)CNC(=O)Cc1ccccc1)c1ccccc1 | > 55.1
O=C(COC(=O)CSc1ccc([N+](=O)[O-])cc1)NCC1CCCO1 (stereo not given) | > 53.2
COc1ccc(CN2CC(C(N)=O)Oc3ccccc32)cc1F (stereo not given) | 35.6 (≈ 113 µM)
CC1CCCCC1NC(=O)CCCN1C(=O)c2ccccc2C1=O (stereo not given) | 15.9 (≈ 48.4 µM)
COC(=O)c1ccc(/C=C/c2nc3ccccc3c(=O)[nH]2)cc1 | 3.7 (≈ 12.1 µM)
Cn1c2c(c(=O)n(C)c1=O)C(CC(=O)Nc1ccccc1F)C(=O)N2 (stereo not given) | > 51.9
CC(C)=CC1C(C(=O)NCCOc2ccccc2)C1(C)C (stereo not given) | 17.7 (≈ 61.6 µM)
Cc1sc2ncnc(NCC(c3ccccc3)N(C)C)c2c1C (stereo not given) | 47.1 (≈ 144 µM)
O=C1[C@@H]2CSCN2C(=O)CN1Cc1c(F)cccc1Cl | > 47.2
Cn1ncc(Cl)c1C(=O)N1CCC2(CC1)OCCO2 | > 42.9
C#CCSc1nc(=O)c2cccnc2n1-c1ccc(C)cc1 | > 46.1
CNS(=O)(=O)c1cc2c3c(cccc3c1)C(=O)NC2=O | 6.3 (≈ 21.7 µM)
COc1cc(OC)c(C(=O)OCC(=O)c2ccc3c(c2)NC(=O)CO3)cc1OC | 4.9 (≈ 12.2 µM)
O=C(O)C1CCCCC1C(=O)NCc1ccc(Cl)c(Cl)c1 (stereo not given) | 35.6 (≈ 108 µM)
Cc1[nH]c2ccccc2c1C(=O)CSc1cccc[n+]1[O-] | 40.8 (≈ 137 µM)
COc1ccccc1NC(=O)C1CC(C)OC1=O (stereo not given) | > 37.4
CCCNC(=O)c1cccc(Br)c1 | > 36.3
CC(=O)COC(=O)c1ccc2noc(-c3ccccc3)c2c1 | 8 (≈ 27.1 µM)
CC1(C2CC2)NC(=O)N(CC(=O)Nc2ccc(F)cc2F)C1=O (stereo not given) | > 48.5
COc1cc(OC)cc(C(=O)NCC(=O)N2CCN(Cc3ccccc3)CC2)c1 | > 59.6
NC(=O)c1ccc[n+](CC(=O)c2ccc(Br)cc2)c1.[Br-] | > 60
